Results published in ChEMBL document CHEMBL3745595, “Flavoalkaloids and Flavonoids from Astragalus monspessulanus” (J Nat Prod, 2015).

Experiments:
[1] = Antioxidant activity assessed as reactive oxygen species scavenging activity; assay type: physicochemical
Hepatocyte = assay: Hepatoprotective activity against tert-butyl hydroperoxide-induced oxidative stress in Wistar rat hepatocytes assessed as cell viability at 60 ug/ml by tryphan blue exclusion method (reference value: 74%); assay type: functional; details: for viability at 60 µg/mL: read-out: Activity

| Compound | Activity [1] | viability at 60 µg/mL (Hepatocyte) | Activity (Hepatocyte) |
| --- | --- | --- | --- |
| C[C@@H]1O[C@@H](OC[C@H]2O[C@@H](Oc3c(-c4ccc(O)c(O)c4)oc4cc(O)cc(O)c4c3=O)[C@H](O[C@@H]3O[C@@H](C)[C@H](O)[C@@H](O)[C@H]3O)[C@@H](O)[C@H]2O)[C@H](O)[C@H](O)[C@H]1O | Active | 195% | – |
| C[C@@H]1O[C@@H](OC[C@H]2O[C@@H](Oc3c(-c4ccc(O)c(O)c4)oc4cc(O)cc(O)c4c3=O)[C@H](O)[C@@H](O)[C@H]2O)[C@H](O)[C@H](O)[C@H]1O | Active | 159% | – |
| C[C@@H]1O[C@@H](OC[C@H]2O[C@@H](Oc3c(-c4ccc(O)c(O)c4)oc4cc(O[C@@H]5O[C@H](CO)[C@@H](O)[C@H](O)[C@H]5O)cc(O)c4c3=O)[C@H](O[C@@H]3O[C@@H](C)[C@H](O)[C@@H](O)[C@H]3O)[C@@H](O)[C@H]2O)[C@H](O)[C@H](O)[C@H]1O | Active | 186% | – |
| O=c1c(O[C@@H]2O[C@H](CO)[C@H](O)[C@H](O)[C@H]2O)c(-c2ccc(O)cc2)oc2cc(O)cc(O)c12 [TRIFOLIN] | Active | 191% | – |
| C[C@@H]1O[C@@H](OC[C@H]2O[C@@H](Oc3c(-c4ccc(O)c(O)c4)oc4cc(O)cc(O)c4c3=O)[C@H](O)[C@@H](O)[C@@H]2O)[C@H](O)[C@H](O)[C@H]1O [RUTIN] | Active | 168% | – |
| C[C@@H]1O[C@@H](OC[C@H]2O[C@@H](Oc3c(-c4ccc(O)cc4)oc4cc(O)cc(O)c4c3=O)[C@H](O[C@@H]3O[C@@H](C)[C@H](O)[C@@H](O)[C@H]3O)[C@@H](O)[C@H]2O)[C@H](O)[C@H](O)[C@H]1O | Active | 168% | – |
| C[C@@H]1O[C@@H](O[C@H]2[C@H](Oc3c(-c4ccc(O)cc4)oc4cc(O)cc(O)c4c3=O)O[C@H](COC(=O)CC(C)(O)CC(=O)O)[C@H](O)[C@@H]2O)[C@H](O)[C@H](O)[C@H]1O (stereo partly specified) | Active | 155% | – |
| SILYMARIN [listing 1 of 2 here] | – | – | 182% |
| SILYMARIN [listing 2 of 2 here] | Active | – | – |
| O=c1cc(-c2ccc(O)cc2)oc2cc(O[C@@H]3O[C@H](CO)[C@@H](O)[C@H](O)[C@H]3O)cc(O)c12 [APIGETRIN] | Active | 177% | – |
| C[C@@H]1O[C@@H](OC[C@H]2O[C@@H](Oc3c(-c4ccc(O)cc4)oc4c(CN5CCCC(O)C5=O)c(O)cc(O)c4c3=O)[C@H](O[C@@H]3O[C@@H](C)[C@H](O)[C@@H](O)[C@H]3O)[C@@H](O)[C@H]2O)[C@H](O)[C@H](O)[C@H]1O (stereo partly specified) | Active | 177% | – |
| C[C@@H]1O[C@@H](OC[C@H]2O[C@@H](Oc3c(-c4ccc(O)cc4)oc4cc(O[C@@H]5O[C@H](CO)[C@@H](O)[C@H](O)[C@H]5O)cc(O)c4c3=O)[C@H](O[C@@H]3O[C@@H](C)[C@H](O)[C@@H](O)[C@H]3O)[C@@H](O)[C@H]2O)[C@H](O)[C@H](O)[C@H]1O | Active | 164% | – |
| C[C@@H]1O[C@@H](OC[C@H]2O[C@@H](Oc3c(-c4ccc(O)c(O)c4)oc4c(CN5CCCC(O)C5=O)c(O)cc(O)c4c3=O)[C@H](O[C@@H]3O[C@@H](C)[C@H](O)[C@@H](O)[C@H]3O)[C@@H](O)[C@H]2O)[C@H](O)[C@H](O)[C@H]1O (stereo partly specified) | Active | 159% | – |
| C[C@@H]1O[C@@H](O[C@H]2[C@H](Oc3c(-c4ccc(O)c(O)c4)oc4cc(O)cc(O)c4c3=O)O[C@H](COC(=O)CC(C)(O)CC(=O)O)[C@H](O)[C@@H]2O)[C@H](O)[C@H](O)[C@H]1O (stereo partly specified) | Active | 182% | – |
